Assays:
[1] = The drug is tested on Bifidobacterium longum subsp. Infantis strain: CCUG52486 for biotransformation. The drug concentrations were measured before and after a 12-h incubation by liquid-chromatography-coupled mass spectrometry (LC–MS); settings: 2 µM
[2] = The drug is tested on Collinsella intestinalis strain: DSM13280 for biotransformation. The drug concentrations were measured before and after a 12-h incubation by liquid-chromatography-coupled mass spectrometry (LC–MS); settings: 2 µM
[3] = The drug is tested on Bacteroides pectinophilus strain: ATCC43243 for biotransformation. The drug concentrations were measured before and after a 12-h incubation by liquid-chromatography-coupled mass spectrometry (LC–MS); settings: 2 µM
[4] = The drug is tested on Bacteroides xylanisolvens strain: DSM18836 for biotransformation. The drug concentrations were measured before and after a 12-h incubation by liquid-chromatography-coupled mass spectrometry (LC–MS); settings: 2 µM
[5] = The drug is tested on Parabacteroides merdae strain: ATCC43184 for biotransformation. The drug concentrations were measured before and after a 12-h incubation by liquid-chromatography-coupled mass spectrometry (LC–MS); settings: 2 µM
[6] = The drug is tested on Anaerotruncus colihominis strain: DSM17241 for biotransformation. The drug concentrations were measured before and after a 12-h incubation by liquid-chromatography-coupled mass spectrometry (LC–MS); settings: 2 µM
[7] = The drug is tested on Clostridium asparagiforme strain: DSM15981 for biotransformation. The drug concentrations were measured before and after a 12-h incubation by liquid-chromatography-coupled mass spectrometry (LC–MS); assay type: ADME; set-up: dose 2 uM, timepoint 0 vs 12 hours; settings: enterocloster asparagiformis, 2 µM
[8] = The drug is tested on Clostridium scindens strain: ATCC35704 for biotransformation. The drug concentrations were measured before and after a 12-h incubation by liquid-chromatography-coupled mass spectrometry (LC–MS); settings: 2 µM
[9] = The drug is tested on Ruminococcus lactaris strain: ATCC29176 for biotransformation. The drug concentrations were measured before and after a 12-h incubation by liquid-chromatography-coupled mass spectrometry (LC–MS); settings: 2 µM
[10] = The drug is tested on Providencia rettgeri strain: DSM1131 for biotransformation. The drug concentrations were measured before and after a 12-h incubation by liquid-chromatography-coupled mass spectrometry (LC–MS); assay type: ADME; set-up: dose 2 uM, timepoint 0 vs 12 hours; settings: 2 µM
[11] = bacteroides eggerthii, 12 h, 2 µM
Description: The drug is tested on Bacteroides eggerthii strain: DSM20697 for biotransformation. The drug concentrations were measured before and after a 12-h incubation by liquid-chromatography-coupled mass spectrometry (LC–MS)

[12] = bacteroides fragilis, 12 h, 2 µM
Description: The drug is tested on Bacteroides fragilis strain: NCTC 9343 for biotransformation. The drug concentrations were measured before and after a 12-h incubation by liquid-chromatography-coupled mass spectrometry (LC–MS)

[13] = bacteroides fragilis, 12 h, 2 µM; remark: listed apart in the source
Description: The drug is tested on Bacteroides fragilis strain: DS-208 for biotransformation. The drug concentrations were measured before and after a 12-h incubation by liquid-chromatography-coupled mass spectrometry (LC–MS)

[14] = bacteroides intestinalis, 12 h, 2 µM
Description: The drug is tested on Bacteroides intestinalis strain: DSM17393 for biotransformation. The drug concentrations were measured before and after a 12-h incubation by liquid-chromatography-coupled mass spectrometry (LC–MS)

[15] = bacteroides thetaiotaomicron, 12 h, 2 µM
Description: The drug is tested on Bacteroides thetaiotaomicron strain: VPI-5482 for biotransformation. The drug concentrations were measured before and after a 12-h incubation by liquid-chromatography-coupled mass spectrometry (LC–MS)

[16] = bacteroides thetaiotaomicron, 12 h, 2 µM; remark: listed apart in the source
Description: The drug is tested on Bacteroides thetaiotaomicron strain: 3731 for biotransformation. The drug concentrations were measured before and after a 12-h incubation by liquid-chromatography-coupled mass spectrometry (LC–MS)

[17] = bacteroides thetaiotaomicron, 12 h, 2 µM; remark: listed apart in the source
Description: The drug is tested on Bacteroides thetaiotaomicron strain: 7330 for biotransformation. The drug concentrations were measured before and after a 12-h incubation by liquid-chromatography-coupled mass spectrometry (LC–MS)

[18] = parabacteroides johnsonii, 12 h, 2 µM
Description: The drug is tested on Parabacteroides johnsonii strain: DSM18315 for biotransformation. The drug concentrations were measured before and after a 12-h incubation by liquid-chromatography-coupled mass spectrometry (LC–MS)

[19] = bacteroides stercoris, 12 h, 2 µM
Description: The drug is tested on Bacteroides stercoris strain: ATCC43183 for biotransformation. The drug concentrations were measured before and after a 12-h incubation by liquid-chromatography-coupled mass spectrometry (LC–MS)

[20] = The drug is tested on Bacteroides vulgatus strain: ATCC8482 for biotransformation. The drug concentrations were measured before and after a 12-h incubation by liquid-chromatography-coupled mass spectrometry (LC–MS); settings: phocaeicola vulgatus, 2 µM

Measured: Bacterial Biotransformation

C#C[C@]1(OC(C)=O)CC[C@H]2[C@@H]3CCC4=C/C(=N/O)CC[C@@H]4[C@H]3CC[C@@]21CC [NORGESTIMATE]
Compound metabolized: [18]
not listed: [19] | [20]
Compound NOT metabolized: all other assays above

Cc1nc(Nc2ncc(C(=O)Nc3c(C)cccc3Cl)s2)cc(N2CCN(CCO)CC2)n1.O [DASATINIB]
Compound metabolized: [6] | [8] | [12] | [13] | [14] | [19] | [18]
not listed: [20]
Compound NOT metabolized: all other assays above

O=C1[C@H](CC[C@H](O)c2ccc(F)cc2)[C@@H](c2ccc(O)cc2)N1c1ccc(F)cc1 [EZETIMIBE]
not listed: [14] | [20]
Compound NOT metabolized: all other assays above

N#Cc1ccc2c(c1)N(CCCN1CCC(O)CC1)c1ccccc1S2 [PERICIAZINE]
Compound metabolized: [20] | [16] | [17] | [18]
not listed: [4] | [5] | [9] | [13] | [15]
Compound NOT metabolized: all other assays above

CCc1nn(CCCN2CCN(c3cccc(Cl)c3)CC2)c(=O)n1CCOc1ccccc1 [NEFAZODONE]
not listed: [20]
Compound NOT metabolized: all other assays above

COCCCC/C(=N\OCCN)c1ccc(C(F)(F)F)cc1.O=C(O)/C=C\C(=O)O [FLUVOXAMINE MALEATE]
Compound metabolized: [3] | [20] | [15] | [16] | [17]
not listed: [2] | [5] | [12] | [13] | [19]
Compound NOT metabolized: all other assays above

COCCc1ccc(OCC(O)CNC(C)C)cc1.COCCc1ccc(OCC(O)CNC(C)C)cc1.O=C(O)C(O)C(O)C(=O)O (stereo not given) [METOPROLOL TARTRATE]
not listed: [4] | [16] | [17] | [19]
Compound NOT metabolized: all other assays above

From ChEMBL document CHEMBL5303573, “Mapping human microbiome drug metabolism by gut bacteria and their genes” (Nature, 2019)
